Patent publication US20130203709A1, “ACYLSULFONAMIDES AND PROCESSES FOR PRODUCING THE SAME” (priority 2010, published 2013)
Like-named read-outs stand apart in the source and are kept apart here.

Legend:
Bcl-XL = Bcl-XL (Homo sapiens, UniProt Q07817); assay: fluorescence polarization (FP) assay, disruption of the Bcl-XL/BH3 interaction; format: binding; conditions: for inhibition at 100 µM: read-out: % Inhibition Bcl-XL; for inhibition at 50 µM: 50 μM acylsulfonamide, disruption of Bcl-XL/BH3 interaction in FP assay, read-out: Percentage Inhibition at 50 μM acylsulfonamide concentrations
Mcl-1 = Mcl-1 (Homo sapiens, UniProt Q07820); assay: fluorescence polarization (FP) assay, disruption of the Mcl-1/BH3 interaction; format: binding; conditions: for inhibition at 100 µM: read-out: % Inhibition Mcl-1
[1] = reactive fragments (SZ, TA), 100 μM per FIG. 22 legend, FP assay

Bcl-XL, sequence (Q07817 whole entry): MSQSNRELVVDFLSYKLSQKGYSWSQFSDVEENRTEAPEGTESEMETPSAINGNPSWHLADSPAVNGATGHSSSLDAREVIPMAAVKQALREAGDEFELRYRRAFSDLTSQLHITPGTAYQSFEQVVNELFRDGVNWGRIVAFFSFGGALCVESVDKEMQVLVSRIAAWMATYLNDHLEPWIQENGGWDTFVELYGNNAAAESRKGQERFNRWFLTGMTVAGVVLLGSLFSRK
Mcl-1, sequence (Q07820 whole entry, the tested form may be a part): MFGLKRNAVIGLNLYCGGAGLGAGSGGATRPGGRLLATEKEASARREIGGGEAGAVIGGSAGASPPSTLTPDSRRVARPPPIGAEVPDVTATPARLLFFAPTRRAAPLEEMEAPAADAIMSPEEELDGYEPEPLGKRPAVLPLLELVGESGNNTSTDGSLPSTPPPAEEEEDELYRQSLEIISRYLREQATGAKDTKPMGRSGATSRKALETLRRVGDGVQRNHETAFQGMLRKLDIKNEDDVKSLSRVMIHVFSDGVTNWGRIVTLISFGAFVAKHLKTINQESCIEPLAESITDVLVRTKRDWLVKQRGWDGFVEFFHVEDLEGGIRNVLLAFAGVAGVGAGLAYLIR

SMILES	inhibition at 100 µM (Bcl-XL; [1])	inhibition at 100 µM (Mcl-1; [1])	inhibition at 50 µM (Bcl-XL)	also measured
COc1ccc(S(=O)(=O)N=[N+]=[N-])cc1 [SZ19]	–	–	–	% Inhibition Bcl-XL (Bcl-XL; [1]): <1%; % Inhibition Mcl-1 (Mcl-1; [1]): <1%
COc1cc2c(cc1OC)C(c1ccccc1)N(Cc1ccc(S(=O)(=O)N=[N+]=[N-])cc1)CC2 (stereo not shown) [SZ11]	< 1%	< 1%	–	–
CC(=O)Nc1ccc(S(=O)(=O)NC(=O)c2cccc([N+](=O)[O-])c2)cc1 [SZ3TA6]	–	–	0%	–
CC1(C)CCN(c2ccc(C(=O)NS(=O)(=O)c3ccc(CN(CSc4ccccc4)Cc4ccc5c(c4)OCO5)cc3)cc2)CC1 [SZ31TA2]	–	–	–	IC50 (Mcl-1; FP assay, read-out: IC50 against Mcl-1): 3.3 µM; ligand efficiency (Mcl-1; against Mcl-1): 0.159
[N-]=[N+]=NS(=O)(=O)c1ccc(COc2ccc3c(=O)cc(-c4ccccc4)oc3c2)cc1 [SZ14]	7.9 ± 5.8%	2.1 ± 3.3%	–	–
COc1cc(OC)cc(C(=O)NS(=O)(=O)c2ccc(CN(CCSc3ccccc3)Cc3ccc(S(=O)(=O)N=[N+]=[N-])cc3)cc2)c1 [SZ9TA5]	–	–	60%	–
CC(=O)Nc1ccc(S(=O)(=O)NC(=O)c2cccc3ccccc23)cc1 [SZ3TA7]	–	–	0%	–
[N-]=[N+]=NS(=O)(=O)c1ccc(COc2ccccc2[N+](=O)[O-])cc1 [SZ13]	–	–	–	% Inhibition Bcl-XL (Bcl-XL; [1]): 3.8 ± 4.1%; % Inhibition Mcl-1 (Mcl-1; [1]): <1%
Cc1ccc(S(=O)(=O)NC(=O)c2ccc(N3CCC(C)(C)CC3)cc2)cc1 [SZ5TA2]	–	–	28%	–
Cc1nc(-c2ccccc2)sc1C(=O)O [TA3]	< 1%	1.4 ± 3.6%	–	–
CC1(C)CCN(c2ccc(C(=O)NS(=O)(=O)c3ccc(CN(CCSc4ccccc4)Cc4ccc(S(=O)(=O)N=[N+]=[N-])cc4)cc3)cc2)CC1 [SZ9TA2]	–	–	38%	–
Cc1ccccc1S(=O)(=O)N=[N+]=[N-] [SZ20]	–	–	–	% Inhibition Bcl-XL (Bcl-XL; [1]): 1.4 ± 1.6%; % Inhibition Mcl-1 (Mcl-1; [1]): 6.2 ± 2.1%
[N-]=[N+]=NS(=O)(=O)c1ccc(NCCSc2ccccc2)c([N+](=O)[O-])c1 [SZ4]	–	–	–	inhibition at 100 µM (Bcl-XL): < 1%; inhibition at 100 µM (Mcl-1): 23.4 ± 14.9%
O=C(O)c1cccc2ccccc12 [TA7]	< 1%	2.4 ± 6.8%	–	–
COc1cccc(CN(CCSc2ccccc2)Cc2ccc(S(=O)(=O)N=[N+]=[N-])cc2)c1 [SZ17]	2.6 ± 7.8%	4 ± 1.6%	–	–
Cc1ccc(S(=O)(=O)NC(=O)c2ccccc2)cc1 [SZ5TA1]	–	–	29%	–
COc1cc2c(cc1OC)C(c1ccccc1)N(CCS(=O)(=O)N=[N+]=[N-])CC2 (stereo not shown) [SZ27]	4 ± 0.1%	13.9 ± 0.05%	–	–
CC(=O)Nc1ccc(S(=O)(=O)NC(=O)c2ccc(OC(F)(F)F)cc2)cc1 [SZ3TA8]	–	–	0%	–
[N-]=[N+]=NS(=O)(=O)CCN(CCSc1ccccc1)Cc1ccc2c(c1)OCO2 [SZ28]	< 1%	< 1%	–	–
O=C(O)c1cccc([N+](=O)[O-])c1 [TA6]	< 1%	< 1%	–	–

SMILES	inhibition at 100 µM (Bcl-XL; [1])	inhibition at 100 µM (Mcl-1; [1])	inhibition at 50 µM (Bcl-XL)	also measured
COc1cc(OC)cc(C(=O)O)c1 [TA5]	< 1%	1.3 ± 13.4%	–	–
O=C(O)c1ccno1 [TA10]	2 ± 1.7%	< 1%	–	–
[N-]=[N+]=NS(=O)(=O)c1ccc(CN(CCSc2ccccc2)Cc2c(F)cccc2Cl)cc1 [SZ15]	10 ± 0.9%	25.1 ± 0.7%	–	–
CN(C)c1cccc2c(S(=O)(=O)N=[N+]=[N-])cccc12 [SZ21]	1.1%	49.3 ± 3.3%	–	–
CC1(C)CCN(c2ccc(C(=O)O)cc2)CC1 [TA2]	< 1%	6.8 ± 6.7%	–	–
CC(=O)Nc1ccc(S(=O)(=O)NC(=O)c2ccco2)cc1 [SZ3TA9]	–	–	0%	–
[N-]=[N+]=NS(=O)(=O)c1ccc(CN(CCSc2ccccc2)Cc2ccc(S(=O)(=O)N=[N+]=[N-])cc2)cc1 [SZ9]	–	–	–	inhibition at 100 µM (Bcl-XL): 4.7 ± 4%; inhibition at 100 µM (Mcl-1): 13 ± 1.4%
[N-]=[N+]=NS(=O)(=O)CCN(Cc1ccccc1)Cc1ccccc1 [SZ26]	< 1%	< 1%	–	–
COc1cc2c(cc1OC)C(c1ccccc1)N(CC(=O)NS(=O)(=O)c1ccc(CN(C)CCc3ccccc3)cc1)CC2 (stereo not shown) [SZ2TA4]	–	–	25%	–
O=C(NS(=O)(=O)c1ccc(NCCSc2ccccc2)c([N+](=O)[O-])c1)c1ccccc1 [SZ4TA1]	–	–	14%	–
[N-]=[N+]=NS(=O)(=O)c1ccc(CN(CCSc2ccccc2)Cc2ccc(S(N)(=O)=O)cc2)cc1 [SZ10]	1.9 ± 3.8%	< 1%	–	–
O=C(O)c1ccc(OC(F)(F)F)cc1 [TA8]	4 ± 1.2%	3.6 ± 12.7%	–	–
CC1(C)CCN(c2ccc(C(=O)NS(=O)(=O)c3ccc4ccc(S(=O)(=O)NCCSc5ccccc5)cc4c3)cc2)CC1 [SZ7TA2]	–	–	76%	–
O=C(O)c1ccco1 [TA9]	< 1%	< 1%	–	–
[N-]=[N+]=NS(=O)(=O)CCN1CCC(Cc2ccccc2)CC1 [SZ24]	< 1%	2.7 ± 7.5%	–	–
[N-]=[N+]=NS(=O)(=O)c1ccc(-c2ccc(C(F)(F)F)cc2)cc1 [SZ16B]	1.1 ± 1.2%	1.3 ± 2.4%	–	–
Cc1nc(-c2ccccc2)sc1C(=O)NS(=O)(=O)c1ccc(CN(C)CCc2ccccc2)cc1 [SZ2TA3]	–	–	7%	–
[N-]=[N+]=NS(=O)(=O)c1ccc(CNc2cccc([N+](=O)[O-])c2)cc1 [SZ12]	< 1%	< 1%	–	–
O=C(NS(=O)(=O)c1ccc(CN(CSc2ccccc2)Cc2ccc3c(c2)OCO3)cc1)c1ccc(OC(F)(F)F)cc1 [SZ31TA8]	–	–	–	selectivity index (Mcl-1; calculated, Mcl-1 over Bcl-XL): 19
[N-]=[N+]=NS(=O)(=O)c1ccc(NCc2ccc(Br)cc2)cc1 [SZ29]	–	–	–	inhibition at 100 µM (Bcl-XL): < 1%; inhibition at 100 µM (Mcl-1): 5.7 ± 4.6%

SMILES	inhibition at 100 µM (Bcl-XL; [1])	inhibition at 100 µM (Mcl-1; [1])	inhibition at 50 µM (Bcl-XL)	also measured
[N-]=[N+]=NS(=O)(=O)CCN1CCCC2CCCCC21 (stereo not shown) [SZ22]	< 1%	1.2 ± 1.2%	–	–
COc1cc2c(cc1OC)C(c1ccccc1)N(CC(=O)O)CC2 (stereo not shown) [TA4]	< 1%	1.5 ± 0.7%	–	–
CC(C)(C)c1ccc(-c2ccc(S(=O)(=O)N=[N+]=[N-])cc2)cc1 [SZ8]	2.2 ± 0.7%	< 1%	–	–
CCN(CC)c1ccc(CNc2ccc(S(=O)(=O)N=[N+]=[N-])cc2)cc1 [SZ30]	< 1%	< 1%	–	–
Cc1ccc(S(=O)(=O)N=[N+]=[N-])cc1 [SZ5]	–	–	–	% Inhibition Bcl-XL (Bcl-XL; [1]): 2.3 ± 1.1%; % Inhibition Mcl-1 (Mcl-1; [1]): 1.2 ± 7.9%
CC(=O)Nc1ccc(S(=O)(=O)NC(=O)c2ccccc2)cc1 [SZ3TA1]	–	–	0%	–
[N-]=[N+]=NS(=O)(=O)c1ccc(CN(CCSc2ccccc2)Cc2ccc3c(c2)OCO3)cc1 [SZ31]	< 1%	< 1%	–	–
[N-]=[N+]=NS(=O)(=O)CCN1CCc2ccccc2C1 [SZ23]	3.3 ± 2.1%	3.6 ± 5.2%	–	–
[N-]=[N+]=NS(=O)(=O)c1ccc(Cl)cc1 [SZ18]	–	–	–	% Inhibition Bcl-XL (Bcl-XL; [1]): <1%; % Inhibition Mcl-1 (Mcl-1; [1]): <1%
CC1(C)CCN(c2ccc(C(=O)NS(=O)(=O)c3ccc(NCCSc4ccccc4)c([N+](=O)[O-])c3)cc2)CC1 [SZ4TA2]	–	–	100%	IC50 against Bcl-XL (in words) (Bcl-XL): in the nM range
[N-]=[N+]=NS(=O)(=O)c1ccc2ccc(S(=O)(=O)NCCSc3ccccc3)cc2c1 [SZ6]	4.6 ± 4.7%	3.4 ± 0.2%	–	–
Cc1nc(-c2ccccc2)sc1C(=O)NS(=O)(=O)c1ccc(CN2CCN(c3ccccc3)CC2)cc1 [SZ1TA3]	–	–	6%	–
CC(=O)Nc1ccc(S(=O)(=O)N=[N+]=[N-])cc1 [SZ3]	6.7 ± 4.5%	< 1%	–	–
O=C(NS(=O)(=O)c1ccc(CN(CCSc2ccccc2)Cc2c(F)cccc2Cl)cc1)c1ccccc1 [SZ15TA1]	–	–	–	fold less active than SZ31TA2 (Mcl-1; Mcl-1 PPIM activity relative to SZ31TA2): approximately 10 fold
CN(CCc1ccccc1)Cc1ccc(S(=O)(=O)NC(=O)c2ccccc2)cc1 [SZ2TA1]	–	–	2%	–
[N-]=[N+]=NS(=O)(=O)CCN1CCN(Cc2ccc3c(c2)OCO3)CC1 [SZ25]	< 1%	< 1%	–	–
CN(CCc1ccccc1)Cc1ccc(S(=O)(=O)NC(=O)c2ccc(N3CCC(C)(C)CC3)cc2)cc1 [SZ2TA2]	–	–	9%	–
Cc1ccc(-c2ccc(C(=O)O)cc2)cc1 [SK_2_170]	7 ± 13%	6.8 ± 1.3%	–	–
Cc1nc(-c2ccccc2)sc1C(=O)NS(=O)(=O)c1ccc(CN(CCSc2ccccc2)Cc2ccc(S(=O)(=O)N=[N+]=[N-])cc2)cc1 [SZ9TA3]	–	–	22%	–
[N-]=[N+]=NS(=O)(=O)c1ccc(CN(CCSc2ccccc2)Cc2ccc(S(=O)(=O)NC(=O)c3ccccc3)cc2)cc1 [SZ9TA1]	–	–	80%	–
